The source of these data is US5286729A, “Angiotensin II receptor blocking 2,3,6 substituted quinazolinones” (American Cyanamid Company, priority 1993, dated 1994).

In this assay the target is T1, Angiotensin II Receptor (Bos taurus, UniProt P25104).
T1 construct: The brownish tissue forming the adrenal cortex is scraped off and finely minced with scissors before homogenization; from tissue; host or cells: beef adrenal cortex, microsomal (100,000 x g) membranes; adrenals from a local slaughter house (Maxwell-Cohen)
T1 sequence (P25104 1-359): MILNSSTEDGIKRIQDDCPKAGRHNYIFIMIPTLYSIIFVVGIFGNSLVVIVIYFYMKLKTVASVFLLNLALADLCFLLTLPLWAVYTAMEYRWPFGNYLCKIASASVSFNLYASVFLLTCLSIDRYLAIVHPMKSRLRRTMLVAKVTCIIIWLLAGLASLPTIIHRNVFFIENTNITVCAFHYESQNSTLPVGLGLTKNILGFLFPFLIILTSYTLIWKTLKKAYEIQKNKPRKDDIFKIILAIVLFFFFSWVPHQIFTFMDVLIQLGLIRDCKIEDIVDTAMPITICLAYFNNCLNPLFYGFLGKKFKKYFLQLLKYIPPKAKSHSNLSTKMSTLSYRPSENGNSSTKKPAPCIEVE
As to the kind of experiment: Receptor Binding Assay, binding of [125I](Sar1,Ile8)AngII to beef adrenal cortex membranes. Conditions: radioligand; non-specific binding with 1.0 uM unlabeled (Sar1,Ile8)AngII. From the text: Beef adrenals are obtained from a local slaughter house (Maxwell-Cohen). [^125 I](Sar^1,Ile^8)AngII, S.A. 2200 Ci/mmole, is purchased from Dupont (NEN®, Boston, Mass.).
Approximately sixteen (16) to twenty (20) beef adrenal glands are processed as follows: fresh adrenal glands received on crushed ice are cleaned of fatty tissues and the tough membranes encapsulating the glands are removed and discarded. The brownish tissue forming the adrenal cortex is scraped off and finely minced with scissors before homogenization. Care is taken to avoid contamination with medullary tissue during dissection. The scraped cortices are suspended in twenty volumes of an ice-cold buffer medium consisting of 10 mM Tris.HCl (pH 7.4 at 22° C.) and containing 1.0 mM EDTA and 0.2M sucrose. Unless otherwise indicated, all subsequent operations are done at 4° C. […] The homogenate is centrifuged first at low speed (3,000×g) for 10 min. […] The pelleted membrane is reconstituted in 50.0 mM Tris.HCl buffer containing 0.1 mM of phenylmethylsulfonyl fluoride (PMSF) to give approximately a protein concentration of 2.5 mg per ml of tissue suspension. The membrane preparation is finally aliquoted in 1.0 ml volumes and stored at -70° C. until use in the binding assays. […]

On to “[^125 I](Sar^1, Ile^8) AngII [reference compound]”, for which the Specific binding result was “greater than 90%”.
